Source: ChEMBL document CHEMBL1201862, “PubChem BioAssay data set” (2004)
Calls of active or inactive are those of the source.

Columns and labels:
[1] = target: T1, Calpain-2 catalytic subunit (Sus scrofa, UniProt P43367); test: pig calpain II inhibitor potency, dose response, biochemical, fluorogenic peptide substrate (AID 1420); type: functional
T1 sequence (P43367 whole entry): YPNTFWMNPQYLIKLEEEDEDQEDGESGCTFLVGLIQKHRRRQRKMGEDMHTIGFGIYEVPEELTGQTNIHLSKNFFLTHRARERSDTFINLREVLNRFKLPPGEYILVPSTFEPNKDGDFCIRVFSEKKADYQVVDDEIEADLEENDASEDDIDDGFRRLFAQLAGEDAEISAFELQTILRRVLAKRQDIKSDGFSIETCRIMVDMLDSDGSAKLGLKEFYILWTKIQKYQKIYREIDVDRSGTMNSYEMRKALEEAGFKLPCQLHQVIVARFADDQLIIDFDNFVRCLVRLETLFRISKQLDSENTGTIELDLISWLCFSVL

[2] = target: Cytochrome P450 2C9 (Homo sapiens, UniProt P11712)
[3] = target: Cytochrome P450 2C19 (Homo sapiens, UniProt P33261); test: Cytochrome panel assay with activity outcomes. Panel member name: p450-cyp2c19 Compounds with AC50 equal or less than 10 uM are considered active; type: functional
[4] = target: Cytochrome P450 3A4 (Homo sapiens, UniProt P08684);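 also: CYP3A4 tested as one member of a cytochrome P450 panel screen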
[5] = inhibitors of intracellular T. cruzi replication, confirmation, NIH3T3 host cells, beta-gal luminescence (AID 2044); type: functional, cell-based;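 also: intracellular parasites grown in NIH/3T3 mouse fibroblasts as host cells; luminescent beta-galactosidase reporter signal from transgenic T. cruzi replicating inside host cells; inhibitors lower the luminescence signal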
[6] = target: Luciferin 4-monooxygenase (Photinus pyralis, UniProt P08659); test: firefly luciferase enzyme inhibitors, dose response, biochemical, luminescence (AID 1891)
[7] = Luminescence Cell-Based Dose Confirmation HTS to Identify Inhibitors of Platelet Dense Granule Release. [Related pubchem assays: 1663 (Primary HTS), 1678 (Summary of Project)]; type: functional
[8] = target: Nonstructural protein 1 (Influenza A virus, UniProt Q194T2); type: functional, Influenza A virus (A/California/07/2009(H1N1))
[9] = target: T2, Cytochrome P450 1A2 (Homo sapiens, UniProt P05177);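 also: PubChem cytochrome P450 panel assay, CYP1A2 panel member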
T2 sequence (P05177 whole entry): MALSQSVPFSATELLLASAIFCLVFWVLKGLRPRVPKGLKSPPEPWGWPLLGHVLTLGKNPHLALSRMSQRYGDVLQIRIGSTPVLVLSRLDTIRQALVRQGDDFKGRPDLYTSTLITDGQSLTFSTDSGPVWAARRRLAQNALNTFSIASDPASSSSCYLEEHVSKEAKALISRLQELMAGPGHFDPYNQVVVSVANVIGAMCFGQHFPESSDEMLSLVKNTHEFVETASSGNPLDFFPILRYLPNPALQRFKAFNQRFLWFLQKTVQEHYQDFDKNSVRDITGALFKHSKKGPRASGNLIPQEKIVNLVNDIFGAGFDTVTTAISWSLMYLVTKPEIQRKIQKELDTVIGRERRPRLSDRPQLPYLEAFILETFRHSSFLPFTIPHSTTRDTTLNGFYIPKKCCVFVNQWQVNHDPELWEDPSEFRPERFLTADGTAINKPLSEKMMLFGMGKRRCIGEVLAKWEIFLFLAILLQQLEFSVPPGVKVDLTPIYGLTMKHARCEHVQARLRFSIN

[10] = target: Cytochrome P450 2D6 (Homo sapiens, UniProt P10635);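 also: CYP2D6 member of a cytochrome P450 panel assay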
[11] = inhibitors of clade B AD8 Env fusion, dose response, cell-based, cherry-pick (AID 652062); type: functional;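 also: luciferase signal from cell-cell fusion driven by HIV-1 clade B AD8 Env; potency is for inhibitors of fusion seen as a drop in luminescence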
[12] = target: T3, Ubiquitin-conjugating enzyme E2 N (Homo sapiens, UniProt P61088); type: functional;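 also: Dose-response confirmation in a TR-FRET assay detecting UBC13-driven polyubiquitin chain formation, inhibition measured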
T3 sequence (P61088 whole entry): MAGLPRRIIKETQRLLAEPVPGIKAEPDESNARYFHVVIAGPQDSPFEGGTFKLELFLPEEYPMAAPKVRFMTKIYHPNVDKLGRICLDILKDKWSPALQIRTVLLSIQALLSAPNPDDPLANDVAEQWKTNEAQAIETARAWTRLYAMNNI

Cytochrome P450 2C19, sequence (P33261 whole entry): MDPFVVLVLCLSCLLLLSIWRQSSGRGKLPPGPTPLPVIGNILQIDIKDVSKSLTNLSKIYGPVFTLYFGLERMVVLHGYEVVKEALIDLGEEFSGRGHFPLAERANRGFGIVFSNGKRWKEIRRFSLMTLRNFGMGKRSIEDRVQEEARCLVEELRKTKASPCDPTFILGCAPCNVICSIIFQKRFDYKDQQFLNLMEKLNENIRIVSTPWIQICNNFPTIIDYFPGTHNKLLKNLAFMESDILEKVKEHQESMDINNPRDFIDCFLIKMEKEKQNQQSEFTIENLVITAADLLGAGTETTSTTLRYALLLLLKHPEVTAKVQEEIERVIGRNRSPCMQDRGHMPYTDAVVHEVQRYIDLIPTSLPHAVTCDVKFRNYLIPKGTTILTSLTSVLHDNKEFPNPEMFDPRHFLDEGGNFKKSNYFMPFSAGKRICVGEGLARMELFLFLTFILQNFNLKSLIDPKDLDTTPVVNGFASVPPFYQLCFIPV
Nonstructural protein 1, sequence (Q194T2 whole entry): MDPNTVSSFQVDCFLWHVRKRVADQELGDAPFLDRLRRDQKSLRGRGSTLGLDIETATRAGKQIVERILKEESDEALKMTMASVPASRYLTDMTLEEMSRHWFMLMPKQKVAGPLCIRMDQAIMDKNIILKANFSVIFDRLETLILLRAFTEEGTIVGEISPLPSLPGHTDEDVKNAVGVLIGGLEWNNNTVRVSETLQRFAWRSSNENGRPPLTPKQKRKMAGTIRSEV
Cytochrome P450 2C9, sequence (P11712 whole entry): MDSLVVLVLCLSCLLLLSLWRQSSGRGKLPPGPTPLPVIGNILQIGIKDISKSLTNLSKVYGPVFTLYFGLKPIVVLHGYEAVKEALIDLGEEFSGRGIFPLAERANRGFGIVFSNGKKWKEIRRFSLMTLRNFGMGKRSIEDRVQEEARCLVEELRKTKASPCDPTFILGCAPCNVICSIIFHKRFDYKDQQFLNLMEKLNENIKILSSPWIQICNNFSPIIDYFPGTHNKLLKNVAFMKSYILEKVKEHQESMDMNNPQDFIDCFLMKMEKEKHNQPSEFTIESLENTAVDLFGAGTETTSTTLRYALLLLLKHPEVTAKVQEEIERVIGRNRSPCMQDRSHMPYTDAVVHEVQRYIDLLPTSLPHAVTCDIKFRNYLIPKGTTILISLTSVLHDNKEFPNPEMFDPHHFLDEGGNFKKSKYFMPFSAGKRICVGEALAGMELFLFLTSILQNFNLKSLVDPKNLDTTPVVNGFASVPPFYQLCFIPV
Cytochrome P450 3A4, sequence (P08684 whole entry): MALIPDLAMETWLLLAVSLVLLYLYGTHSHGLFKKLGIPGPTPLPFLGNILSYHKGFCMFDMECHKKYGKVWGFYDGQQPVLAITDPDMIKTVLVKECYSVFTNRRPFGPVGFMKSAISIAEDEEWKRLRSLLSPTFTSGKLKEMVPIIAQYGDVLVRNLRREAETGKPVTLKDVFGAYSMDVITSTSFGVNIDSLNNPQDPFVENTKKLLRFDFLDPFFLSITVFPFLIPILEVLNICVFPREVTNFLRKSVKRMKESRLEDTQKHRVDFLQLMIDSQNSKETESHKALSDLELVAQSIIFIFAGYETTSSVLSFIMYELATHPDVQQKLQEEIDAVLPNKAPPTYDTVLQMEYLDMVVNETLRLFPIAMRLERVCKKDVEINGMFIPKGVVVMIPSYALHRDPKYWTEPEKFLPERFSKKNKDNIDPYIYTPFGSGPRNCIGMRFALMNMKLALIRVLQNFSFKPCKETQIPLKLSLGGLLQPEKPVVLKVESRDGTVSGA
Luciferin 4-monooxygenase, sequence (P08659 whole entry): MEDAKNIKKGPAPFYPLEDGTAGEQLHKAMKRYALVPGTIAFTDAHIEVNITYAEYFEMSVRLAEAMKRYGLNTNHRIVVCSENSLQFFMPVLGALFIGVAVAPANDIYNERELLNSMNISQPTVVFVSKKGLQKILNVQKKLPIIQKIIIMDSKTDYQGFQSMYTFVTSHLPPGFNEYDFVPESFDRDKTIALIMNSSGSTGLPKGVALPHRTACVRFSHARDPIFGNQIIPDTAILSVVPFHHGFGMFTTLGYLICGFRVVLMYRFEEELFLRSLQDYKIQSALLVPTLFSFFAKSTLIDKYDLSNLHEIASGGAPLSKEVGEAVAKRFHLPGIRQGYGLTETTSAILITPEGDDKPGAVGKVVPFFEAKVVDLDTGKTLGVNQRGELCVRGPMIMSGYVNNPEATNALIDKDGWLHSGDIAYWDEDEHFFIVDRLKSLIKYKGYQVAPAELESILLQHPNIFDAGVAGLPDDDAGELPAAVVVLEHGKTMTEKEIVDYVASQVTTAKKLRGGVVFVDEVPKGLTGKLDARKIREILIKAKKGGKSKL
Cytochrome P450 2D6, sequence (P10635 whole entry, the tested form may be a part): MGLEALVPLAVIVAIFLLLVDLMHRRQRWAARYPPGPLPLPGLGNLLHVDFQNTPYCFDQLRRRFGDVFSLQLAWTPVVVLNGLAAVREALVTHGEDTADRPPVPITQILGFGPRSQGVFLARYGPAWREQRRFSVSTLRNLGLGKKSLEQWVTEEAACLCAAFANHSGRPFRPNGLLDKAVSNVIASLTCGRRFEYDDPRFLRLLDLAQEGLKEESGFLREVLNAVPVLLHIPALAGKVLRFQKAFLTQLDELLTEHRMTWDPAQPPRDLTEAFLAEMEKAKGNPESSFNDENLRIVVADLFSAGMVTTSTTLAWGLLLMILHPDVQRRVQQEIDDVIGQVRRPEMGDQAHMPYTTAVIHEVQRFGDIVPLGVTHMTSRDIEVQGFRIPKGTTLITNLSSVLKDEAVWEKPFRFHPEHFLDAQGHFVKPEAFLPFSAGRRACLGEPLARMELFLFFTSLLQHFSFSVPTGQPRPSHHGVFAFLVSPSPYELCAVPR

Question: Which IC50 [1] does the source give for `CCOC(=O)C1(Cc2cccc(OC)c2)CCN(Cc2cccc(OCC)c2O)CC1` here?
Answer: The IC50 was 8.3 µM (not active).

Question: Which AC50 [2] does the source give for `C/C(=N\NC(=O)c1ccc(Cl)cc1)c1ccc(Br)s1` here?
Answer: The AC50 was “inconclusive”.

Question: What about the AC50 ([3]; read-out: AC50) of the same compound?
Answer: Its AC50 is 17.8 µM (inconclusive).

Question: What about the AC50 [4] of the same compound?
Answer: The AC50 was 14.1 µM (inconclusive).

Question: And the EC50 [5]?
Answer: The EC50 was 1.91 µM (active).

Question: Which AC50 [2] does the source give for `O=c1c(-c2ccc(F)cc2)nc2cnc(N3CCOCC3)nc2n1C[C@H]1CCCO1` here?
Answer: Its AC50 is “inconclusive”.

Question: And the AC50 [3]?
Answer: Its AC50 is “inconclusive”.

Question: For `O=C(Nc1cnn(Cc2ccc(F)cc2)c1)C(c1ccccc1)c1ccccc1`, which EC50 [6] is on record?
Answer: The EC50 was 49.5 µM (active).

Question: And the IC50 [1]?
Answer: The IC50 was 9.63 µM (not active).

Question: What about the EC50 [7] of the same compound?
Answer: The EC50 was 18.2 µM (active).

Question: Which IC50 [8] does the source give for `NCCCNC(=O)Cn1c(=O)c2c3c(sc2n(Cc2ccccc2)c1=O)CCCC3` here?
Answer: Its IC50 is > 100 µM (active).

Question: Which IC50 [1] does the source give for `CCN(CC)S(=O)(=O)c1ccc(C)c(NC(S)=NNC(=O)C2CC2)c1` here?
Answer: The IC50 was > 50 µM (not active).

Question: For `COc1cc(C(=O)NCc2ccc3c(c2)cc(C)n3C)cc(OC)c1OC`, which IC50 [1] is on record?
Answer: The IC50 was > 50 µM (not active).

Question: Which AC50 [2] does the source give for `O=C(CSCc1c(F)cccc1Cl)NCC1CCCO1` (stereo not given) here?
Answer: Its AC50 is “inconclusive”.

Question: For `COCCCN=C(S)NNC(=O)C1CC1c1ccc(C(C)(C)C)cc1` (stereo not given), which IC50 [1] is on record?
Answer: The IC50 was > 50 µM (not active).

Question: Which AC50 [2] does the source give for `CCCCN(C)CCCNC(=O)C[S+]([O-])Cc1nc(-c2ccc(OC)c(OC)c2)oc1C` (stereo not given) here?
Answer: The AC50 was “inconclusive”.

Question: And the AC50 [3]?
Answer: The AC50 was “inconclusive”.

Question: Which results are given for `CN(C)C(=O)c1ccc(-c2ccc3ncnc(N4CCC(C(=O)O)CC4)c3c2)cc1`?
Answer: AC50 [2]: inconclusive; AC50 [9]: 39.8 µM (inconclusive)

Question: For `Cc1ccccc1N=C(S)NCc1ccc2[nH]c3c(c2c1)CCCC3`, which IC50 [8] is on record?
Answer: Its IC50 is > 100 µM (active).

Question: With `O=C(Nc1cccc(C(F)(F)F)c1)c1ccc(Cn2cc(Br)cn2)o1` as the compound, how does the AC50 [10] read?
Answer: The AC50 was 22.4 µM (inconclusive).

Question: What about the AC50 [11] of the same compound?
Answer: Its AC50 is 29.6 µM (active).

Question: With `CC(C)(C)NC[C@H](O)COc1nsnc1N1CCOCC1` [TIMOLOL] as the compound, how does the AC50 [2] read?
Answer: The AC50 was “inactive”.

Question: What does the source list for `CN(C)CCCN(C(=O)c1ccc2c(c1)CCCC2)c1nc2ccc(Cl)cc2s1`?
Answer: IC50 [12]: > 20 µM (inactive); IC50 [8]: > 100 µM (active)
